Source: patent US4299767A, “Benzodiazepine derivatives” (Hoffmann-La Roche Inc., priority 1978, dated 1981)

What was measured:
[1] = system: intestinal resorption of cholesterol; test: inhibition of the intestinal resorption of cholesterol (cholesterol recovery, CHOREC); format: in vivo, normal female Fullinsdorf albino rats; conditions: rats
Method: The compounds to be tested are administered to groups of 6 normal female Fullinsdorf albino rats (body weight about 70 g) by oral intubation. This is followed immediately by oral intubation of a test meal containing radioactive cholesterol. Consecutively, feces are collected for three days, freeze dried and pulverized. An aliquot is burned for evaluation of fecal radioactivity. Controls excrete about 40-50% of the dietary radioactive cholesterol called cholesterol recovery (CHOREC) and arbitrarily set 100%. Animals treated with a substance inhibiting the intestinal resorption of cholesterol show a higher excretion of radioactive cholesterol in comparison with controls. The cholesterol recovery (CHOREC) of treated animals is expressed in % of controls.
(§1) The following Table contains results obtained with the aforementioned particularly preferred compounds inhibiting the intestinal resorption of cholesterol. For each of these compounds there are given the dose(s) administered (in μMol/kg p.o) as well as the cholesterol recovery (CHOREC), expressed in % of controls. Moreover, the Table contains data relating to the acute toxicity of the compounds investigated (LD 50 in mg/kg in the case of a single oral administration to rats): […]

[2] = acute toxicity, single oral administration to rats; conditions: rat, in vivo, p.o.
Excerpt: as §1

SMILES	cholesterol recovery (CHOREC), in % of controls ([1]; 1000 μMol/kg p.o.)	LD50 [2]	cholesterol recovery (CHOREC), in % of controls ([1]; 10 μMol/kg p.o.)	cholesterol recovery (CHOREC), in % of controls ([1]; 30 μMol/kg p.o.)	cholesterol recovery (CHOREC), in % of controls ([1]; 100 μMol/kg p.o.)
CN1C(=O)CN=C(c2ccccc2F)c2c1ccc(NC(=O)N1CCOCC1)c2Cl [Example 51, N-[6-chloro-5-(o-fluorophenyl)-2,3-dihydro-1-methyl-2-oxo-1H-1,4-benzodiazepin-7-yl]-4-morpholinecarboxamide]	186%	1250 to 2500 mg/kg			
CC1N=C(c2ccccc2Cl)c2c(ccc(NC(=O)NCCO)c2Br)N(C)C1=O (racemic) [Example 48, rac-1-[6-bromo-5-(o-chlorophenyl)-2,3-dihydro-1,3-dimethyl-2-oxo-2H-1,4-benzodiazepin-7-yl]-3-(2-hydroxyethyl)urea]	187%	> 5000 mg/kg	150%	157%	168%
